Measurements from US10800754B2, “Heterocyclic amide compound” (TAKEDA PHARMACEUTICAL COMPANY LIMITED, priority 2016, dated 2020).

Biological target: T1, human PRS protein (Homo sapiens, UniProt P07814)
T1 construct: to construct His-Avi-hEPRS (998-1512) expression plasmid; His tag (N); Avi tag (N); TEV cleavage site (ENLYFQ/GS, encoded by forward primer hEPRS-TEV-NheF) (N); made in house; host or cells: E. coli BL21(DE3)
T1 sequence (P07814 998-1512): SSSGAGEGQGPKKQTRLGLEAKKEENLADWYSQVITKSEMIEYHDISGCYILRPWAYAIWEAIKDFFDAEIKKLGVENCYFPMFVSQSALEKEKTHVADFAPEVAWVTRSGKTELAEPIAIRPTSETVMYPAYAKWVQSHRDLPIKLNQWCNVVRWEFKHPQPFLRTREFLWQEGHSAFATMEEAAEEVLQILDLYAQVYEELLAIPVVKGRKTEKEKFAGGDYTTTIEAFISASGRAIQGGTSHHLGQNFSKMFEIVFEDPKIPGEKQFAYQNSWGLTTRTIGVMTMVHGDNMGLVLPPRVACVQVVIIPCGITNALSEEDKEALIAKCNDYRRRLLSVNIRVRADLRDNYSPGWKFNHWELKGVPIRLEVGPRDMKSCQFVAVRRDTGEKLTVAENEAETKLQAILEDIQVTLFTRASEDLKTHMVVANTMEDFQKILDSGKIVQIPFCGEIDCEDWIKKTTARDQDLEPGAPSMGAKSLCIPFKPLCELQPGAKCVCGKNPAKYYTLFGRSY
Test: PRS inhibitory activity (ATP/[32P]pyrophosphate exchange enzyme reaction)
Assay type: biochemical
Settings: 300 nM test compound; recombinant human PRS (EPRS 998-1512); read-out: inhibitory rate (%) of PRS
Description: The PRS inhibitory activity of the compounds of the present invention was evaluated by the following method.
An expression plasmid of Catalytic Domain of human EPRS was obtained by PCR using human skeletal muscle cDNA Library (Takara Bio Inc.) as a template and 2 kinds of Primers 5′-[…]-3′ (hEPRS-TEV-NheF) (SEQ ID NO: 1) and 5′-[…]-3′ (hEPRS-St-Not-R) (SEQ ID NO: 2). PCR was performed using PrimeStar GXL DNA Polymerase (Takara Bio Inc.) and included (1) 98° C., 1 min, (2) cycles of 98° C., 10 sec, 65° C., 10 sec, 72° C., 1 min, and (3) reaction at 72° C., 1 min. This was cleaved with Nhe I and Not I (Takara Bio Inc.) and inserted using Ligation High (TOYOBO CO., LTD.) into the Nhe I/Not I site of pET21a (Novagen) with His-Avitag inserted thereinto. This was introduced into ECOS JM109 (NIPPON GENE CO., LTD.) to construct His-Avi-hEPRS (998-1512) expression plasmid.
Recombinant human PRS protein was prepared by transforming the His-Avi-hEPRS (998-1512) expression plasmid prepared above into ECOS Competent E. coli BL21(DE3) (NIPPON GENE CO., LTD.). Escherichia coli obtained by transformation was inoculated into 300 mL of LB medium (1% peptone, 0.5% yeast extract, 0.5% sodium chloride, 0.01% ampicillin) and cultured at 30° C. for 16 hr. The obtained culture medium was transferred into a jar culture tank charged with 6 L of the main fermentation medium (0.3% potassium dihydrogen phosphate, 0.6% disodium hydrogen phosphate, 0.1% ammonium chloride, 0.05% sodium chloride, 0.024% magnesium sulfate, 0.02% NEWPOL LB-625, 1.5% sorbitol, 1.5% casamino acid, 0.5% yeast extract, 0.01% ampicillin) and culturing was started at 37° C., quantity of airflow 5 L/min, stirring rotating speed 400 rpm. At the time point when the turbidity of the culture medium reached about 550 Klett units, the culture temperature was lowered to 16° C., isopropyl-β-D-thiogalactopyranoside (IPTG) was added to the final concentration 0.1 mM, and culturing was performed for another 16 hr to induce expression of human PRS. After completion of culturing, the culture medium was centrifuged at 5,000 rpm for 10 min. The obtained human PRS expressing Escherichia coli was suspended in a buffer containing 50 mM Tris-HCl (pH 8.0), 150 mM NaCl, 1 mM DTT, 5 U/ml Benzonase, 20 mM Imidazole and sonicated using Sonifier (BRANSON). The homogenate was centrifuged (33,000×G, 60 min, Beckman Coulter), the obtained supernatant was subjected to adsorption by passage through Ni-NTA Superflow (QIAGEN) column equilibrated in advance with 50 mM Tris-HCl (pH 8.0), 300 mM NaCl, 1 mM DTT, and elution was performed with a buffer containing 50 mM Tris-HCl (pH 8.0), 300 mM NaCl, 1 mM DTT, 250 mM Imidazole. Furthermore, gel filtration was performed using […] equilibrated in advance with a buffer containing 50 mM Tris-HCl (pH 8.0), 150 mM NaCl, 1 mM DTT, 10% glycerol to give purified human PRS protein. The protein concentration was measured using BCA Protein Assay Kit (PIERCE) and BSA as the standard.
A test compound was dissolved in 5 μL of an assay buffer (50 mM Tris-HCl (pH 7.5), 20 mM KCl, 1 mM DTT, 0.01% Tween 20) and incubated for 60 min with 5 μL of 40 nM human PRS protein dissolved in the assay buffer containing 40 mM MgCl2. An enzyme reaction of the human PRS protein was started by adding 10 μL of a substrate solution containing 300 μM ATP, 160 μM L-Proline, 400 μM pyrophosphate, [^32P]pyrophosphate (PerkinElmer, Waltham, Mass.) prepared to 1 MBq/mL. After incubation at room temperature for 30 min, the reaction was discontinued by adding 50 μL of discontinuation/washing solution (1M HCl, 200 mM sodium pyrophosphate) to the reaction mixture. The reaction solution was transferred to a filter plate (Merck Millipore, Billerica, Mass.) previously added with 200 μL of charcoal solution (0.5% HCl solution containing 10% charcoal (w/v)). […]

SMILES	inhibition at 0.3 µM [%]
N#C[C@@]1(C2CC2)CCN(c2ccnc(NC(=O)Cc3cccc(Cl)c3)c2)C1=O [Example 1, 2-(3-chlorophenyl)-N-(4-((3S)-3-cyano-3-cyclopropyl-2-oxopyrrolidin-1-yl)pyridin-2-yl)acetamide]	84
N#C[C@@]1(C2CC2)CCN(c2ccnc(NC(=O)Cc3ccccc3Cl)c2)C1=O [Example 5, 2-(2-chlorophenyl)-N-(4-((3S)-3-cyano-3-cyclopropyl-2-oxopyrrolidin-1-yl)pyridin-2-yl)acetamide]	62
COc1cccc(CC(=O)Nc2cc(N3CC[C@@](C#N)(C4CC4)C3=O)ccn2)c1 [Example 10, N-(4-((3S)-3-cyano-3-cyclopropyl-2-oxopyrrolidin-1-yl)pyridin-2-yl)-2-(3-methoxyphenyl)acetamide]	88
N#C[C@@]1(C2CC2)CCN(c2ccnc(NC(=O)Cc3ccccc3F)c2)C1=O [Example 14, N-(4-((3S)-3-cyano-3-cyclopropyl-2-oxopyrrolidin-1-yl)pyridin-2-yl)-2-(2-fluorophenyl)acetamide]	70
N#C[C@@]1(C2CC2)CCN(c2ccnc(NC(=O)Cc3ccsc3)c2)C1=O [Example 15, N-(4-((3S)-3-cyano-3-cyclopropyl-2-oxopyrrolidin-1-yl)pyridin-2-yl)-2-(3-thienyl)acetamide]	84
N#C[C@@]1(C2CC2)CCN(c2ccnc(NC(=O)Cc3cccs3)c2)C1=O [Example 16, N-(4-((3S)-3-cyano-3-cyclopropyl-2-oxopyrrolidin-1-yl)pyridin-2-yl)-2-(2-thienyl)acetamide]	88
N#C[C@@]1(C2CC2)CCN(c2ccnc(NC(=O)Cc3ccc(Cl)s3)c2)C1=O [Example 17, 2-(5-chloro-2-thienyl)-N-(4-((3S)-3-cyano-3-cyclopropyl-2-oxopyrrolidin-1-yl)pyridin-2-yl)acetamide]	83
C=CC[C@]1(C#N)CCN(c2ccnc(NC(=O)Cc3cccc(-c4cnn(C)c4)c3)c2)C1=O [Example 22, N-(4-((3R)-3-allyl-3-cyano-2-oxopyrrolidin-1-yl)pyridin-2-yl)-2-(3-(1-methyl-1H-pyrazol-4-yl)phenyl)acetamide]	87
C=CC[C@]1(C#N)CCN(c2ccnc(NC(=O)Cc3cccc(-c4ccsc4)c3)c2)C1=O [Example 24, N-(4-((3R)-3-allyl-3-cyano-2-oxopyrrolidin-1-yl)pyridin-2-yl)-2-(3-(3-thienyl)phenyl)acetamide]	71
C=CC[C@]1(C#N)CCN(c2ccnc(NC(=O)Cc3cccc(-c4ccncc4)c3)c2)C1=O [Example 25, N-(4-((3R)-3-allyl-3-cyano-2-oxopyrrolidin-1-yl)pyridin-2-yl)-2-(3-(pyridin-4-yl)phenyl)acetamide]	61
N#C[C@@]1(C2CC2)CCN(c2ccnc(NC(=O)Cc3csc4ccccc34)c2)C1=O [Example 28, 2-(1-benzothiophen-3-yl)-N-(4-((3S)-3-cyano-3-cyclopropyl-2-oxopyrrolidin-1-yl)pyridin-2-yl)acetamide]	94
N#CC1(C2CCC2)CCN(c2ccnc(NC(=O)Cc3cccc4ccccc34)c2)C1=O (stereo not shown) [Example 33, N-(4-(3-cyano-3-cyclobutyl-2-oxopyrrolidin-1-yl)pyridin-2-yl)-2-(1-naphthyl)acetamide]	80
Cn1cc(-c2cccc(CC(=O)Nc3cc(N4CCC(C)(C)C4=O)ccn3)c2)cn1 [Example 43, N-(4-(3,3-dimethyl-2-oxopyrrolidin-1-yl)pyridin-2-yl)-2-(3-(1-methyl-1H-pyrazol-4-yl)phenyl)acetamide]	88
Cc1cc(N2CCC(C)(C)C2=O)cc(NC(=O)Cc2cccc(-c3cnn(C)c3)c2)n1 [Example 49, N-(4-(3,3-dimethyl-2-oxopyrrolidin-1-yl)-6-methylpyridin-2-yl)-2-(3-(1-methyl-1H-pyrazol-4-yl)phenyl)acetamide]	83

The next lines start with the values.

inhibition at 0.3 µM [%]	SMILES
85	N#C[C@@]1(C2CC2)CCN(c2ccnc(NC(=O)Cc3ccccc3)c2)C1=O [Example 2, N-(4-((3S)-3-cyano-3-cyclopropyl-2-oxopyrrolidin-1-yl)pyridin-2-yl)-2-phenylacetamide]
93	N#C[C@@]1(C2CC2)CCN(c2ccnc(NC(=O)Cc3cccc4ccccc34)c2)C1=O [Example 3, N-(4-((3S)-3-cyano-3-cyclopropyl-2-oxopyrrolidin-1-yl)pyridin-2-yl)-2-(1-naphthyl)acetamide]
94	N#C[C@@]1(C2CC2)CCN(c2ccnc(NC(=O)Cc3cccc(-c4ccccc4)c3)c2)C1=O [Example 9, 2-(biphenyl-3-yl)-N-(4-((3S)-3-cyano-3-cyclopropyl-2-oxopyrrolidin-1-yl)pyridin-2-yl)acetamide]
85	Cc1cccc(CC(=O)Nc2cc(N3CC[C@@](C#N)(C4CC4)C3=O)ccn2)c1 [Example 11, N-(4-((3S)-3-cyano-3-cyclopropyl-2-oxopyrrolidin-1-yl)pyridin-2-yl)-2-(3-methylphenyl)acetamide]
89	N#C[C@@]1(C2CC2)CCN(c2ccnc(NC(=O)Cc3cccc(F)c3)c2)C1=O [Example 13, N-(4-((3S)-3-cyano-3-cyclopropyl-2-oxopyrrolidin-1-yl)pyridin-2-yl)-2-(3-fluorophenyl)acetamide]
89	N#C[C@@]1(C2CC2)CCN(c2ccnc(NC(=O)Cc3cccc(Br)c3)c2)C1=O [Example 21, 2-(3-bromophenyl)-N-(4-((3S)-3-cyano-3-cyclopropyl-2-oxopyrrolidin-1-yl)pyridin-2-yl)acetamide]
97	N#C[C@@]1(C2CC2)CCN(c2ccnc(NC(=O)Cc3cccc(-c4cccnc4)c3)c2)C1=O [Example 34, N-(4-((3S)-3-cyano-3-cyclopropyl-2-oxopyrrolidin-1-yl)pyridin-2-yl)-2-(3-(pyridin-3-yl)phenyl)acetamide]
96	N#Cc1ccc(-c2cccc(CC(=O)Nc3cc(N4CC[C@@](C#N)(C5CC5)C4=O)ccn3)c2)s1 [Example 36, N-(4-((3S)-3-cyano-3-cyclopropyl-2-oxopyrrolidin-1-yl)pyridin-2-yl)-2-(3-(5-cyano-2-thienyl)phenyl)acetamide]
